Broadly, the EC50 is the concentration giving half of the maximal effect.

The text below walks through data of article PMC5544527 (Journal of neuroscience research, 2015).

What all share (type): cell-based
Test [1] has as its target T1, GABAA receptor α1β2γ2 (Homo sapiens, UniProt P14867+P47870). The test is described as follows: whole-cell patch clamp, potentiation of GABA-evoked currents at […]. In general terms: In patch-clamp work, channel activity is measured electrically.
In a further test the target is GABAA receptor α4β3δ (Homo sapiens, UniProt P28472+P48169). The test is described as follows: whole-cell patch clamp, potentiation of GABA.
In test [2] the target is T1, GABAA receptor α1β2γ2. Briefly: whole-cell patch clamp, potentiation of GABA.

T1 sequence (P14867 28-456): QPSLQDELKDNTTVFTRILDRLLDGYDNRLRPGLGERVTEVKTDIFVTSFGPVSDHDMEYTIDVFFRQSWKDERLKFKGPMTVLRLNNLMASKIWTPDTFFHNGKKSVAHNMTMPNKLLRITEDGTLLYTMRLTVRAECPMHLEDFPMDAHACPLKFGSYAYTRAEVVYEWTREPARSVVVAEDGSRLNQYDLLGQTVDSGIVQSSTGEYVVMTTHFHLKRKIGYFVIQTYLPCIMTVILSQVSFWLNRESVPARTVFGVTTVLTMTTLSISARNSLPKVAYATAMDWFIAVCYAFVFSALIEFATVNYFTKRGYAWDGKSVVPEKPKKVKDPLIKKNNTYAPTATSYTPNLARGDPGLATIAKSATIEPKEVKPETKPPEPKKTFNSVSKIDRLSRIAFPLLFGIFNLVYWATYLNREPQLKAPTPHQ
T1 sequence (P47870 26-512): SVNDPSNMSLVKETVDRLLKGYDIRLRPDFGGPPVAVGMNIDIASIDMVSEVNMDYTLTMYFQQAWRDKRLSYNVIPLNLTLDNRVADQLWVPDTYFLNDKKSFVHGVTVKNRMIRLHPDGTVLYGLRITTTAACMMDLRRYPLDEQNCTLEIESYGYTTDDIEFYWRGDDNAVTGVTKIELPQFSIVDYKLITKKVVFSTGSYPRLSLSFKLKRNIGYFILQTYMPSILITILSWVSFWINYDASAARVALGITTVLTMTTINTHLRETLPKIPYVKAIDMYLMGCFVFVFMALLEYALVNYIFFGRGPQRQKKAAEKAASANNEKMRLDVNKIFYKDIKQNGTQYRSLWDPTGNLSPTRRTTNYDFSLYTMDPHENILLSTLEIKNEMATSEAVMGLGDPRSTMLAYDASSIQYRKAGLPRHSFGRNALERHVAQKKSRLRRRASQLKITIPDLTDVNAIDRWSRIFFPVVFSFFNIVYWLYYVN
T1 sequence (P18507 40-475 partner): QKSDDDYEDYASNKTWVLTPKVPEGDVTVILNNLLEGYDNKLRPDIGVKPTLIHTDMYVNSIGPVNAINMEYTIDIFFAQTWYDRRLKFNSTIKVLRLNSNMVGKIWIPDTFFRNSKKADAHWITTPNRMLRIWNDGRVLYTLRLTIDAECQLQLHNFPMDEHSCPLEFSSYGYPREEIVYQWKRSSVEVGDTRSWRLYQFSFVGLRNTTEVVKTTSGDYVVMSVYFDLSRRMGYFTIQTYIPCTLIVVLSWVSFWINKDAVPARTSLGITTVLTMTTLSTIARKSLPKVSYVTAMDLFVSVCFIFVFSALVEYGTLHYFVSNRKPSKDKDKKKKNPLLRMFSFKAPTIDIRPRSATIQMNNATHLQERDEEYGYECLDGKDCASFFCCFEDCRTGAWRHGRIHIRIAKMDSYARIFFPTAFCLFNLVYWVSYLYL
GABAA receptor α4β3δ, sequence (P48169 36-554): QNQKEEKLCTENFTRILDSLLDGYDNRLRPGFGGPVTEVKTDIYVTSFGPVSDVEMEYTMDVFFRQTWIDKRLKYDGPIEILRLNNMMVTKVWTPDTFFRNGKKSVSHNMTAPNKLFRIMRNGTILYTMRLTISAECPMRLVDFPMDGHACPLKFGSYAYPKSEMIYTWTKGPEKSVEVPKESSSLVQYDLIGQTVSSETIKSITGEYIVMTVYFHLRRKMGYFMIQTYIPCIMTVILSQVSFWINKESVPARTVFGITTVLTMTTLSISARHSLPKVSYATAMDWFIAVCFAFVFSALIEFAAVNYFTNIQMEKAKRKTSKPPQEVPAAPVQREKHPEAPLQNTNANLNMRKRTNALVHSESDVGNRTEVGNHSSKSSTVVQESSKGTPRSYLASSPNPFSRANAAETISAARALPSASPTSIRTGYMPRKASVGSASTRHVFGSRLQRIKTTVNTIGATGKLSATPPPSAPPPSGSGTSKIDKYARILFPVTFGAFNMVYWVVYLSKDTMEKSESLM
GABAA receptor α4β3δ, sequence (P28472 26-473): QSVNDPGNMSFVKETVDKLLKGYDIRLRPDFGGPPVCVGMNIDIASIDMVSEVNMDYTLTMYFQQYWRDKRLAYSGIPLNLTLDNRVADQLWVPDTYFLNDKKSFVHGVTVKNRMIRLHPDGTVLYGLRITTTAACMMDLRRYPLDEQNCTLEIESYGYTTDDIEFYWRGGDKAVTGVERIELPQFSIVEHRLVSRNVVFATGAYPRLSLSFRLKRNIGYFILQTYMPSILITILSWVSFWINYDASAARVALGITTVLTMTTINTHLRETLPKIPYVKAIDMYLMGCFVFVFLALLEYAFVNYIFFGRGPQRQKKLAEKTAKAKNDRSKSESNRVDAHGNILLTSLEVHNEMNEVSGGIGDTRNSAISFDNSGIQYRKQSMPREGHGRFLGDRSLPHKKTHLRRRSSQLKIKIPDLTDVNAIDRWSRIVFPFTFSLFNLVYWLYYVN
GABAA receptor α4β3δ, sequence (O14764 25-452 partner): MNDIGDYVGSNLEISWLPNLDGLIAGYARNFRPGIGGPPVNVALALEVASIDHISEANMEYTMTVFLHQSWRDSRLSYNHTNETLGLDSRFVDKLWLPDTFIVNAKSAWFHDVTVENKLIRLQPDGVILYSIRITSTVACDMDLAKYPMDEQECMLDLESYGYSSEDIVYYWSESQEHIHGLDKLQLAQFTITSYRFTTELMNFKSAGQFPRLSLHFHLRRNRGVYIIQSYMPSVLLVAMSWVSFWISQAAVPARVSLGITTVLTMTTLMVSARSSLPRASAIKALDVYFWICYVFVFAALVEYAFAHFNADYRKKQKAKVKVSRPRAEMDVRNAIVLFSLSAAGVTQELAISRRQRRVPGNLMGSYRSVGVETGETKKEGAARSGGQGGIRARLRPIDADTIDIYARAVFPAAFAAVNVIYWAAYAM

In the case of SGE-872, the “% potentiation at 10 μM” value on GABAA receptor α1β2γ2 [1] is on record as 744 % potentiation at 10 µM. Moreover, the EC50 on GABAA receptor α4β3δ turned out to be 160 nM.

`CC(=O)[C@H]1CC[C@H]2[C@@H]3CC[C@H]4C[C@H](O)CC[C@]4(C)[C@H]3CC[C@]12C` [allopregnanolone]: the EC50 worked out at 80 nM at GABAA receptor α4β3δ and 185 nM on GABAA receptor α1β2γ2 [2].
